Assay results published in patent US5846937A, “Method of using exendin and GLP-1 to affect the central nervous system” (1149336 Ontario Inc., priority 1997, dated 1998).

What was measured:
[1] = test system: Wild-type (+/+), male CD1 mice; experiment: Line test (locomotor activity) after ICV injection, wild-type mice; assay type: in vivo; conditions: wild-type mice fasted overnight; ICV 5 μl; GLP-1 5 μg, Exendin(9-39) amide 10 μg, Exendin-4 amide 15 μg
Experimental: Male CD1 mice were used for these experiments. Wild-type (+/+), male CD1 mice (approx. 11 weeks old) were obtained from Charles River Canada (Quebec). Mice were acclimatized to the animal facility for several days prior to use in the actual experiments.
(§1) All mice were faster overnight 16 hours prior to the start of the experiment. Mice were lightly anesthetized by placing them in a covered beaker with 800 μl of Methoxyflurane (Metofane, Jannsen Pharmaceuticals) for approximately 3 minutes. Peptides were delivered into the ventricles by ICV injection using a 2.5 mm×30 gauge needle attached to a Hamilton syringe. All test peptides were dissolved in phosphate buffered saline. Mice were given 5 μl ICV injections of the test peptides or saline, following which they were observed closely for 3 hours.
(§2) Following ICV administration of GLP-1 [5 μg/5 μl; Glucagon-like Peptide 1 (7-36) amide, human, lot # AM680, Bachem California, Torrence, Calif.], Exendin(9-39) amide (10 μg/5 μl; lot # ZN136, Bachem California, Torrence, Calif.), Exendin-4 amide (15 μg/5 μl; kit # 506189, Bachem California, Torrence, Calif.), or PBS, mice were placed into individual cages for the period of observation.
(§3) To record food intake, mice were given a pre-weighed (approx. 3 g) amount of rodent chow when all members of a test group appeared fully alert, generally about 20-30 minutes after ICV injection.
(§4) Approximately 15-20 min. after the mice had begun to eat, or no longer than 30 min. following the addition of the pre-weighed rodent chow to the cages, the parameter of arousal/sedation was assessed, namely mice were assessed for locomotor activity by measuring the number of times each animal crossed over a line that was placed in the center of the cage (line test).
(§5) The Locomotor activity was assessed for 3×30 min consecutive periods. The data for the first 30 minutes observation period is shown in the accompanying FIG. 1.

[2] = test system: GLP-1R^(-/-) knockout mice; experiment: Line test (locomotor activity) after ICV injection, GLP-1R knockout mice; assay type: in vivo; conditions: GLP-1R knockout mice fasted overnight; ICV 5 μl; GLP-1 5 μg, Exendin(9-39) amide 10 μg, Exendin-4 amide 15 μg
Experimental: GLP-1R^(-/-) knockout age-matched male mice, produced as described above in example 1, were bred in the Toronto Hospital animal facility. All mice were fed a diet of ad libitum access to standard laboratory rat chow and tap water.
as §1, with “saline.” for “saline. Mice were given 5 μl ICV injections of the test peptides or saline, following which they were observed closely for 3 hours.”
as §2, §3, §4, §5

normal wildtype mice = experiment: Dose response experiment, line test after ICV injection, non-fasted mice; assay type: in vivo; conditions: for mean number of line crossings: not fasted, saline control 66.8
Experimental: A dose response experiment was performed to compare the specific activities of exendin and GLP-1 peptides. Additionally, this experiment was designed to eliminate the possibility that the sedative response was connected to any feeding behavior. Therefore, mice were not fasted prior to the experiment, and were instead allowed food and water ad libitum throughout their dark cycle. At the beginning of the light cycle, food was removed and peptides administered. Exendin or GLP-1 peptide, obtained as described above, were each injected ICV into normal wildtype mice at a concentration of 0.5, 1.0, 5.0 or 10.0 μg per 5 μl, and locomotor activity assessed as above.

rats = conditions: ICV administration; cited from earlier work

| Substance | locomotor activity (number of line cross events) [1] | locomotor activity / lethargy [2] | mean number of line crossings (normal wildtype mice; 0.5 μg per 5 μl ICV (lowest dose)) | potency relative to GLP-1 on a weight (μg) basis (normal wildtype mice; sedative effect in the mammalian central nervous system, ICV) | food intake / feeding (rats) | locomotor activity (rats) | mean number of line crossings (normal wildtype mice; 10 μg per 5 μl ICV (highest dose)) |
| --- | --- | --- | --- | --- | --- | --- | --- |
| Exendin-4 amide [exendin 4] | clear and marked decreased number of line cross events | induced lethargy and reduced movement | 11.5 | at least 20 fold | – | – | – |
| Glucagon-like Peptide 1 (7-36) amide [GLP-1] | exhibited the same tendency | did not | – | – | inhibits feeding | reduction in locomotor activity | 24 |
| Exendin(9-39) amide | greatly increased locomotor activity | induced lethargy | – | – | doubled food intake | – | – |
